Experimental findings from patent publication US7138423B2, “Arylpyrrolidine derivatives as NK-1 /SSRI antagonists” (Bristol-Myers Squibb Company, priority 2004, dated 2006) are described below.

Structures can show the parent of a compound that is named as a salt.

Test [1] addresses T1, neurokinin-1 (NK-1) receptor (Homo sapiens, UniProt P25103).
T1 construct: a human glioblastoma-astrocytoma cell line that endogenously expresses the neurokinin-1 (NK-1) receptor; endogenous in cells; host or cells: U373 human glioblastoma-astrocytoma cells (membranes)
Briefly: NK-1 binding, [125I] Substance P competition, U373 cell membranes. The following applies: for IC50: U373 membranes, Bolton Hunter [125I] Substance P displacement; for activity for NK-1: summary statement referring to Table 1. How it is done: U373 cells, a human glioblastoma-astrocytoma cell line that endogenously expresses the neurokinin-1 (NK-1) receptor, were grown in a monolayer culture at 37° C. in 5% CO2 and fed with Minimum Essential Medium (MEM) supplemented with 10% fetal bovine serum. Membranes were prepared as follows: Cells were washed twice with ice-cold phosphate-buffered saline (pH 7.4) and then incubated for 5 to 10 minutes with ice-cold 10 mM Tris buffer (pH 7.4) containing 5 mM EDTA. Cells were removed from plates, homogenized, and centrifuged at 32,000×g for 20 minutes. The resulting supernatant was discarded, and the pellet resuspended by homogenization in 50 mM Tris buffer (pH 7.4) containing 1 mM EDTA and centrifuged at 32,000×g for 20 minutes. The resulting supernatant was discarded, and the pellet resuspended by homogenization in NK-1 binding assay buffer (50 mM Tris-HCL (pH 7.4), 3 mM MnCl2, 200 μg/ml BSA, 5 μg/ml chymostatin, 40 μg/ml bacitracin and 4 μg/ml leupeptin).
On the day of an experiment the membrane preparation was thawed, homogenized and diluted with NK-1 binding assay buffer to the appropriate concentration. Competition binding assays were performed in 96 well plate format by incubating membranes (5–10 ug/well) with Bolton Hunter labeled [^125I] Substance P, at a concentration of […], and concentrations of drugs ranging from 10000 to 0.01 nM. Samples were incubated for 30 min at 20° C. then filtered through GF/B glass fiber filters (pretreated with 1% polyethyleneimine and 0.3% Triton X-100) using a Brandel cell harvester. The filters were then washed with 10 ml ice cold 50 mM Tris-HCL (pH 7.4) containing 3 mM MgCl2. Non-specific was defined in the presence of 2 μM L-733,060 (a non-peptide NK-1 antagonist). Amount of radioligand bound in the presence and absence of competitor was analyzed by plotting (−)log drug concentration versus the amount of radioligand specifically bound. The midpoint of the displacement curve (IC50, nM), signifies the potency. Ki values were calculated using the method of Cheng and Prusoff [Cheng, Y.-C. and Prusoff, W. H., Biochemical Pharmacology, Vol. 22, pp. 3099–3108, Pergamon Press (1973)].

Test [2] addresses T2, human serotonin transporters (Homo sapiens, UniProt P31645).
T2 construct: expressed in transfected cells; host or cells: HEK-293 cells stably expressing hSERT (G418 selection), membranes
Briefly: Serotonin transporter binding assay, [3H]-citalopram, HEK-hSERT membranes. To be noted: for IC50: HEK-hSERT membranes, 1 nM [3H]-citalopram displacement, read-out: SERT IC50; for activity for SERT: summary statement referring to Table 1. How it is done: Serotonin Transporter Binding Assay
HEK-293 cells that stably express human serotonin transporters (HEK-hSERT cells) were grown at 37° C. in 5% CO2 as a monolayer in medium consisting of EMEM supplemented with 10% fetal bovine serum and G418 sulfate (500 μg/ml). To prepare membranes for radioligand binding experiments, cells were rinsed twice with phosphate-buffered saline (138 mM NaCl, 4.1 mM KCl, 5.1 mM Na2PO4, 1.5 mM […], 11.1 mM glucose, pH 7.4). Cells were transferred from plates to polypropylene tubes (16×100 mm), centrifuged at 1,200×g for 5 min and were frozen at −80° C. until assay. Following centrifugation, pellets were resuspended by homogenization in buffer consisting of 50 mM Tris (pH 7.7 at 25° C.), 120 mM NaCl and 5 mM KCl and then centrifuged at 32,000×g for 10 min. Following centrifugation, supernatants were discarded and pellets were resuspended in buffer consisting of 50 mM Tris (pH 7.4 at 25° C.), 150 mM NaCl and 5 mM KCl. Membrane homogenates (200 μl/plate) were incubated with 1 nM [^3H]-citalopram (specific activity=85 Ci/mmol) and increasing concentrations of test compounds for 1 hr at 25° C. in a total volume of 250 μl. The assay buffer consisted of 50 mM Tris (pH 7.4 at 25° C.), 120 mM NaCl and 5 mM KCl (pH 7.4 with conc. HCl). Plates were incubated for 1 hr at 25° C., then filtered through 0.5% PEI treated Whatman GF/B filters using a Brandel cell harvester. Filters were washed three times with 3 ml of ice-cold Tris wash buffer. Non-specific binding was defined with 10 μM fluoxetine. Amount of radioligand bound in the presence and absence of competitor was analyzed by plotting (−)log drug concentration versus the amount of radioligand specifically bound. The midpoint of the displacement curve (IC50, nM), signifies the potency. Ki values were calculated using the method of Cheng and Prusoff [Cheng, Y.-C. and Prusoff, W. H., Biochemical Pharmacology, Vol. 22, pp. 3099–3108, Pergamon Press (1973)].

T2 sequence (P31645 whole entry): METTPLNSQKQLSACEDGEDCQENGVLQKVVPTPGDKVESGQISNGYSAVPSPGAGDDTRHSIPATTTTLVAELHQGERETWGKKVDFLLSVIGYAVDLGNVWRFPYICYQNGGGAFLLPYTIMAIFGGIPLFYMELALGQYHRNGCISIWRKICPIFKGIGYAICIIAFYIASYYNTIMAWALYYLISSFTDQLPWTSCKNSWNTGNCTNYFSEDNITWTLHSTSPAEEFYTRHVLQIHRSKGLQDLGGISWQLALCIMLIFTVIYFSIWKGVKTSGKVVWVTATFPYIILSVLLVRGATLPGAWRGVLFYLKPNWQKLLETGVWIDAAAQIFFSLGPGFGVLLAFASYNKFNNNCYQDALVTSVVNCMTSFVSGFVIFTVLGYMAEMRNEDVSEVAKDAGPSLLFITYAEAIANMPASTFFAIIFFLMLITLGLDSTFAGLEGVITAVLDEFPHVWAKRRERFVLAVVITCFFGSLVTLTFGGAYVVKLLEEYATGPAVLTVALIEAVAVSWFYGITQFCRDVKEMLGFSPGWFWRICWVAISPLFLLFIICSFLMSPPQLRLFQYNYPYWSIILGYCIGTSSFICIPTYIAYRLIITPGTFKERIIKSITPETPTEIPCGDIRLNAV
T1 sequence (P25103 whole entry): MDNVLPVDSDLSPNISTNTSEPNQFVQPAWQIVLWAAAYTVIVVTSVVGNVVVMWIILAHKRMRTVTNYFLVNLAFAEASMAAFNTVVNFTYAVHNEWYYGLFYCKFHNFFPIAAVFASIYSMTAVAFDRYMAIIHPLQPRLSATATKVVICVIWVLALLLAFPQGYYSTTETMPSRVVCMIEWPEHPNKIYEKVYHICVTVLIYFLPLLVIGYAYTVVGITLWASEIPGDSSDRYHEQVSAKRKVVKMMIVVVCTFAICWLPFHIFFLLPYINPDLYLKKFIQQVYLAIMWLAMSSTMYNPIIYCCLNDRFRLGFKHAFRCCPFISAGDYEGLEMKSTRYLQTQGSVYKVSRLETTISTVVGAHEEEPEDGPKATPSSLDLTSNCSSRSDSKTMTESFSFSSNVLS

As to `FC(F)(F)c1cc(COC[C@@H]2CNC[C@H]2c2ccccc2)cc(C(F)(F)F)c1` (relative stereo) [Example 1, Trans-3-((3,5-bis(trifluoromethyl)benzyloxy)methyl)-4-phenylpyrrolidine hydrochloride], the IC50 in test [1] fell in the range of 0.02 to 0.1 µM.
As to `Fc1cc(F)cc(COC[C@@H]2CNC[C@H]2c2ccccc2)c1` (relative stereo) [Example 4, Trans-3-((3,5-difluorobenzyloxy)methyl)-4-phenylpyrrolidine], the IC50 in test [2] lay in the range of 0.02 to 0.1 µM.
On the same count and under the same terms, the result for `FC(F)(F)c1ccccc1COC[C@@H]1CNC[C@H]1c1ccccc1` (relative stereo) [Example 5, Trans-3-((2-trifluorobenzyloxy)-methyl)-4-phenylpyrrolidine] reads 0.1 to 0.3 µM; that for `FC(F)(F)c1cccc(COC[C@@H]2CNC[C@H]2c2ccccc2)c1` (relative stereo) [Example 6, Trans-3-((3-trifluoromethylbenzyloxy)-methyl)-4-phenylpyrrolidine], 0.02 to 0.1 µM.
As to `FC(F)(F)c1cc(COC[C@@H]2CNC[C@H]2c2c[nH]c3ccccc23)cc(C(F)(F)F)c1` (relative stereo) [Example 8, Trans-3-(4-((3,5-bis(trifluoromethyl)benzy-loxy)methyl)pyrrolidin-3-yl)-1H-indole], the IC50 in test [1] was 0.1 to 0.3 µM.
As for `Cc1cc(C)cc(OC[C@@H]2CNC[C@H]2c2ccccc2)c1` (relative stereo) [Example 11, Trans-3-((3,5-dimethylphenoxy)methyl)-4-phenylpyrrolidine hydrochloride], the IC50 in test [2] fell in the range of 0.02 to 0.1 µM.
The molecule `FC(F)(F)c1cc(OC[C@@H]2CNC[C@H]2c2c[nH]c3ccccc23)cc(C(F)(F)F)c1` (relative stereo) [Example 12, Trans-3-(4-((3,5-bis(trifluoromethyl)phenoxy)methyl)pyrrolidin-3-yl)-1H-indole] came in with an IC50 in test [1] of 0.1 to 0.3 µM.
Consider `Cc1cc(C)cc(COCC2CNCC2c2ccccc2)c1` (stereo not drawn) [Example 2, Trans-3-((3,5-dimethylbenzyloxy)-methyl)-4-phenylpyrrolidine], for which, in test [2], the IC50 fell in the range of 0.02 to 0.1 µM and the “activity for SERT” value is recorded as “have activity”. In test [1], the half-maximal inhibitory concentration (IC50) lay in the range of 0.1 to 0.3 µM and the “activity for NK-1” value is “have activity”.
On to `FC(F)(F)c1cc(OCC2CNCC2c2ccccc2)cc(C(F)(F)F)c1` (stereo not drawn) [Example 10, Trans-3-((3,5-bis(trifluoromethyl)phenoxy)methyl)-4-phenylpyrrolidine trifluoroacetic acid salt], for which, in test [2], the IC50 is 0.02 to 0.1 µM and the “activity for SERT” value was “have activity”. In test [1], the IC50 lay within 0.1 to 0.3 µM and the “activity for NK-1” value is “have activity”.
